The values below come from patent publication US20260176258A1, “A THIOETHER COMPOUND HAVING SOFT DRUG PROPERTIES, A PHARMACEUTICAL COMPOSITION AND USE THEREOF” (Prime Gene Therapeutics Co., Ltd., priority 2022, published 2026).

One series concerns the target T1, hTRPV3 (Homo sapiens, UniProt Q8NET8).
T1 construct: expressed in transfected cells; host or cells: HEK-293
T1 sequence (Q8NET8 1-790): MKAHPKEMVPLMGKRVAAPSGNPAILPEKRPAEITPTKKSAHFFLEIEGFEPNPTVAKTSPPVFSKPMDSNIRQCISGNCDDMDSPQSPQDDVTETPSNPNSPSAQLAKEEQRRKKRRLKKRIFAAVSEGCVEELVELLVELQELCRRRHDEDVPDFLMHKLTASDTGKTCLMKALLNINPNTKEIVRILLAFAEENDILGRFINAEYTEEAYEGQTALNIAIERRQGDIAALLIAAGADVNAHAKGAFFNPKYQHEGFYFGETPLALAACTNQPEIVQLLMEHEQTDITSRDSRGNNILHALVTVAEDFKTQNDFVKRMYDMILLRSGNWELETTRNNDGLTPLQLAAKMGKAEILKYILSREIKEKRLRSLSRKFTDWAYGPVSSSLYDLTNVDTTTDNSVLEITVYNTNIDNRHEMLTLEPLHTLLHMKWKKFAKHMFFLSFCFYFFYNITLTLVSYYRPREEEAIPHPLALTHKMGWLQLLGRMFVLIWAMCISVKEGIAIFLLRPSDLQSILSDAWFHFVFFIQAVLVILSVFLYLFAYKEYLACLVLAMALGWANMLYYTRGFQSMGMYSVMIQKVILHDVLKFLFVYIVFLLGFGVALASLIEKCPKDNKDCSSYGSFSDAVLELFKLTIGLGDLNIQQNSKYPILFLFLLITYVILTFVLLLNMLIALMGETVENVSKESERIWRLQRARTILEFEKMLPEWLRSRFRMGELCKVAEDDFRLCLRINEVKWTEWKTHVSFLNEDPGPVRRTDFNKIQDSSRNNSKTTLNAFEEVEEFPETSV
The series can be described thus: Whole cell patch clamp of TRPV3 current in HEK-293 cells instantaneously expressing TRPV3. Format: cell-based. Conditions: for inhibition at 0.3 µM: HEK293, single concentration 0.3 μM, patch clamp, read-out: Inhibition rate on hTRPV3. As to the method: In this study, HEK-293 cells instantaneously expressing TRPV3 were used for experimental detection.
The operation steps are as follows:
The cells were cultured in DMEM medium containing 10% fetal bovine serum at a temperature of 37° C. and a carbon dioxide concentration of 5%.
Day 1: Cells were inoculated into a 6-well plate with 5×10^5 cells per well.
Day 2: Transfection was performed using Lipofectamine 3000 transfection reagent, with a plasmid to transfection reagent ratio of 1 μg: 2 μL. The total amount of plasmid used per well was 3 μg. Specifically, two sterile centrifuge tubes were taken and 100 μL Opti-MEM was added to each tube. 6 μL Lipofectamine 3000 was added to one tube and mixed well; and 3 μg plasmid was added to another tube and mixed well, and then 6 μL P3000 was added and mixed well; after that, the diluted plasmid DNA was addeds to diluted Lipofectamine 3000 and incubated at room temperature for 10-15 min. DNA liposome complex was dropped into the cells, shaked gently and mixed well, and then cultured in an incubator. The liquid was changed after 4 to 6 h.
Day 3: The cells were digested and seeded into 24 well plates with pre-placed cover slides, with 8×10^3 cells per well.
Day 4: Patch clamp testing was performed.
The voltage stimulation protocol for recording TRPV3 current using whole cell patch clamp is as follows: after forming a whole cell seal, a cell membrane voltage clamp was set at −80 mV. Firstly, a membrane potential was recorded at 0 mV, and then a voltage was command to start from −100 mV, to depolarize in the form of Ramp to 100 mV within 100 ms, and finally restore to 0 mV. Data collection was repeated every 5 seconds to observe the inhibitory effect of pharmaceutical on peak current. Experimental data was collected by EPC 10 amplifier (HEKA) and stored in PatchMaster (HEKA) software.
A microelectrode puller was used to pull the capillary glass tube into a recording electrode. The electrode filled with intracellular fluid was inserted into a microelectrode holder, and a microelectrode manipulator was operated under an inverted microscope to immerse the electrode in extracellular fluid and an electrode resistance (Rpip) was recorded. The electrode was brought into contact with the cell surface and a negative pressure suction was applied to form a high resistance seal (GΩ). At this point, a fast capacitance compensation was performed, and negative pressure was continued to apply in order to break the cell membrane, so that a whole cell recording mode was formed. Then, a slow capacitance compensation was performed and experimental parameters such as film capacitance (Cm) and series resistance (Rs) were recorded. No leakage compensation was provided.
When the TRPV3 current recorded by the whole cell had stabilized, administration was started. Each pharmaceutical concentration acted for 5 minutes (or until the current stabilized) before detecting the next concentration. A plurality of concentrations was tested for each test compound. A cover glass covered with cells was placed in a recording bath under an inverted microscope. A blank control extracellular solution and a working fluid for the compound to be tested sequentially flowed through the recording bath from low concentration to high concentration using gravity perfusion to act on the cells. Liquid exchange was performed using a peristaltic pump during recording. The current detected by each cell in the extracellular fluid without the compound served as its own control group. Each concentration was independently tested twice using at least two cells. All electrophysiological tests were conducted at room temperature.

The nature of series [1]: Liver microsome metabolism stability test, human. Format: in vitro ADME. Conditions: human liver microsomes 0.5 mg/mL, 1 μM compound, 37° C. On the procedure: (§1) Two separate experiments were conducted. a) NADPH: 10 μL of 20 mg/mL liver microsomes and 40 μL of 10 mM NADPH were added to a culture medium. The final concentrations of microsomes and NADPH were 0.5 mg/mL and 1 mM, respectively. b) NADPH free: 10 μL of 20 mg/mL liver microsomes and 40 μL of ultrapure H2O were added to a culture medium. The final concentration of microsomes was 0.5 mg/mL.
(§2) At the beginning of the reaction, 4 μL of 100 μM test compound solution or a control compound solution with a final concentration of 1 μM were added, and proceed at 37° C.
(§3) 50 μL aliquots were taken from the reaction solution at 0, 7, 15, 30, and 60 minutes. The reaction was stopped by adding 4 volumes of cold acetonitrile and IS (100 nM alprazolam, 200 nM labetalol, 200 nM caffeine, and 2 μM ketoprofen). The samples were centrifuged at 3220 grams for 40 minutes. 100 μL supernatant divided equally was mixed with 100 μL of ultrapure H2O, and use for LC-MS/MS analysis.
For orientation: Microsomes from liver hold many membrane-bound enzymes, among them those of drug oxidation.

Series [2] in a line: Liver microsome metabolism stability test, rat. Format: in vitro ADME. Conditions: rat liver microsomes 0.5 mg/mL, 1 μM compound, 37° C. On the procedure:
as §1, §2, §3

The target in the next series is hTRPV1 (Homo sapiens, UniProt Q8NER1). The series can be described thus: Patch clamp method, hTRPV1. Format: cell-based.
The target of a further series is hTRPV4 (Homo sapiens, UniProt Q9HBA0). The series can be described thus: Patch clamp method, hTRPV4. Format: cell-based. On the technique in general: In patch-clamp work, channel activity is measured electrically.
In a further series the target is hTRPA1 (Homo sapiens, UniProt O75762). In words: Patch clamp method, hTRPA1. Format: cell-based.
Chain of hTRPA1 (O75762 whole entry): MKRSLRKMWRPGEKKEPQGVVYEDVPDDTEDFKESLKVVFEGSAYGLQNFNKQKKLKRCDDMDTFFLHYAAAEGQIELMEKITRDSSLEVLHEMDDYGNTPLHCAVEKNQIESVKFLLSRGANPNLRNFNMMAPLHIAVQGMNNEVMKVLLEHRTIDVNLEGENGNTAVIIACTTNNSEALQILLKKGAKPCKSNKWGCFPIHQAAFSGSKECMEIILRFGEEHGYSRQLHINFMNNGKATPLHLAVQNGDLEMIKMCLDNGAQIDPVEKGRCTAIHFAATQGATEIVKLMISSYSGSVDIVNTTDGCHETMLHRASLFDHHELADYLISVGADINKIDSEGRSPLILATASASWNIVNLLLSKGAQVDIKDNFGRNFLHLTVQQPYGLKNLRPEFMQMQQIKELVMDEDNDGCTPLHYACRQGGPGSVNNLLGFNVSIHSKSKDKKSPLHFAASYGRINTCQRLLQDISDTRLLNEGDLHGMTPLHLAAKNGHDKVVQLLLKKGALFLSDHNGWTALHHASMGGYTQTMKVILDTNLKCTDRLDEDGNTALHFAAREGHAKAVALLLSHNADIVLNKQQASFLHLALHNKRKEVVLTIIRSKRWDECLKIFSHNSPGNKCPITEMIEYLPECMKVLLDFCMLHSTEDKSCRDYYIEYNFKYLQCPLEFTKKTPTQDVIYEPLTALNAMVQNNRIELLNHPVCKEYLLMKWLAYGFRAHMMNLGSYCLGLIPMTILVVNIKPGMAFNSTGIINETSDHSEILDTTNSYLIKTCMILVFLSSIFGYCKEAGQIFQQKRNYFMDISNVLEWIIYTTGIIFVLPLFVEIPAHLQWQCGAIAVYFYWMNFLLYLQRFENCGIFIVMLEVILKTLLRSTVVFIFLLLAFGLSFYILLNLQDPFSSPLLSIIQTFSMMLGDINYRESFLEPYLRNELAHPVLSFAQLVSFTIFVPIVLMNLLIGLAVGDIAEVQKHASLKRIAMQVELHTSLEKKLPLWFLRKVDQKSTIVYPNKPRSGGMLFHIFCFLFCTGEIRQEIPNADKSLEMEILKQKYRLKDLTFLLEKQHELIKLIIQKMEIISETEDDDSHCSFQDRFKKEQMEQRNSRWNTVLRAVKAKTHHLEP

Chain of hTRPV4 (Q9HBA0 whole entry): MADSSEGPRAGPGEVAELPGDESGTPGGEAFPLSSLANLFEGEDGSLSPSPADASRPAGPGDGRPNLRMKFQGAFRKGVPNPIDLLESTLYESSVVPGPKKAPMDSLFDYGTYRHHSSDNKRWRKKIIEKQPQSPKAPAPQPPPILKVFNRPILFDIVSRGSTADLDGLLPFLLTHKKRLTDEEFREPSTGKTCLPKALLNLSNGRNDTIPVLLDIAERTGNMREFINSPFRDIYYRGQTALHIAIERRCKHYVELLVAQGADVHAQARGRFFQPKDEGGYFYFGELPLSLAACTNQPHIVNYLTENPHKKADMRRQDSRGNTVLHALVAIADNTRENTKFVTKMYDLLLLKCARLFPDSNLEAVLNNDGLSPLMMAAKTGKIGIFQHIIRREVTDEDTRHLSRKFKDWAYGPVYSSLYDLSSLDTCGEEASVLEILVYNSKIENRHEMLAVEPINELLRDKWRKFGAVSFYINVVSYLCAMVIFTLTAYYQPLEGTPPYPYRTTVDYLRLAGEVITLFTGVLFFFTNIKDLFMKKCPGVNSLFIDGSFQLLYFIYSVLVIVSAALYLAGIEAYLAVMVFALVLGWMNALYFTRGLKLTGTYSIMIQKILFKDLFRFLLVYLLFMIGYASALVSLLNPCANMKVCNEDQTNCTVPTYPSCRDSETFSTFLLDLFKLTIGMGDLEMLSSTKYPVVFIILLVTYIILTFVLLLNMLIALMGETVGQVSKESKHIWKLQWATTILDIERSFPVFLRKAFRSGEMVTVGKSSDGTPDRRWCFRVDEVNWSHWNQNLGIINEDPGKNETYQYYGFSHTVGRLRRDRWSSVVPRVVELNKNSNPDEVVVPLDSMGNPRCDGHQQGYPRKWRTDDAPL
Chain of hTRPV1 (Q8NER1 whole entry): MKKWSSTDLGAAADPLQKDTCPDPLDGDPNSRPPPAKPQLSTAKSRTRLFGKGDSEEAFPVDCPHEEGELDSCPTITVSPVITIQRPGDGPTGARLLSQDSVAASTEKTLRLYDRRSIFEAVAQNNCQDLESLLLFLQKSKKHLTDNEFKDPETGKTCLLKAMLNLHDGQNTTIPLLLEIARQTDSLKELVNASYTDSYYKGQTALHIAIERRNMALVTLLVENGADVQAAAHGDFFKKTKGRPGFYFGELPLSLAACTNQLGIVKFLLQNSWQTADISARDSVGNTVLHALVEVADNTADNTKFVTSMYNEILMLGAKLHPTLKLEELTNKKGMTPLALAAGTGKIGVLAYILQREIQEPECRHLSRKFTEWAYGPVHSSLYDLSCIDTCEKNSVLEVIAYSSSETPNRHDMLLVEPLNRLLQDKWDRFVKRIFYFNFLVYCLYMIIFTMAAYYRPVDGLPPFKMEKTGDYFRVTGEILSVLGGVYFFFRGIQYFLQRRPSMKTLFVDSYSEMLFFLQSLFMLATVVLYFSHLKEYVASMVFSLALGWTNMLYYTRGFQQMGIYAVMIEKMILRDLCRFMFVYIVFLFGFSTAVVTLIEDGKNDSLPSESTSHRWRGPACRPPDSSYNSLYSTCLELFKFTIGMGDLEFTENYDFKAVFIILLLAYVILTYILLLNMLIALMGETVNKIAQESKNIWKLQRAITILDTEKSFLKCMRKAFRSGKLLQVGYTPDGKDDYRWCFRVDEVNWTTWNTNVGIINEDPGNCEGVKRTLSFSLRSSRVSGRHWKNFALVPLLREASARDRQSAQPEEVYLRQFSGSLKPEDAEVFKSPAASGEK

For `CC(C)c1ccccc1-c1ccc(N2CC[C@H](Sc3ccc(C(F)(F)F)cn3)C2)c(CO)c1` [Example 7, ((S)-(2′-isopropyl-4-(3-(5-(trifluoromethyl)pyridin-2-yl)thio)pyrrolidin-1-yl)-[1,1′-biphenyl]-3-yl) methanol], the inhibition at 0.3 µM at hTRPV3 is 38%.

Regarding `CC(C)c1ccccc1-c1ccc(N2CC[C@H](S(=O)(=O)c3ccc(Cl)cn3)C2)c(CO)c1` [Example 2, ((S)-(4-(3-(5-chloropyridin-2-yl)sulfonyl)pyrrolidin-1-yl)-2′-isopropyl-[1,1′-biphenyl]-3-yl) methanol], the inhibition at 0.3 µM at hTRPV3 turned out to be 18.6%.

For `CC(C)c1ccccc1-c1ccc(N2CC[C@H]([S+]([O-])c3ccc(Cl)cn3)C2)c(CO)c1` (stereo partly shown) [Example 3], the inhibition at 0.3 µM at hTRPV3 is 9.96%.

For `CC(C)c1ccccc1-c1ccc(N2CC[C@H](Sc3ccc(Cl)cn3)C2)c(CO)c1` [Example 1, ((S)-(4-(3-(5-chloropyridin-2-yl)thio)pyrrolidin-1-yl)-2′-isopropyl-[1,1′-biphenyl]-3-yl) methanol], the inhibition at 0.3 µM on hTRPV3 is 71.6%. Moreover, the results for the “in vitro Clint” value in series [1] and in series [2] were 135.00 microliters/minute/milligrams and 112.14 microliters/minute/milligrams, respectively. Besides, the half-life at 1 μM was found to be 10.3 min in series [1] (read-out: in vitro T1/2) and 12.4 min in series [2] (read-out: in vitro T1/2).

As to `[O-][S+](c1ccc(Cl)cn1)[C@H]1CCN(c2ccc(-c3ccccc3C3CC3)cc2CO)C1` (stereo partly shown) [Example 6], the inhibition at 0.3 µM on hTRPV3 was 4.73%.

On to `O=S(=O)(c1ccc(Cl)cn1)[C@H]1CCN(c2ccc(-c3ccccc3C3CC3)cc2CO)C1` [Example 5, (S)-(4-(3-((5-chloropyridin-2-yl)sulfonyl)pyrrolidin-1-yl)-2′-cyclopropyl-[1,1′-biphenyl]-3-yl) methanol], for which the inhibition at 0.3 µM on hTRPV3 is 23.1%.

For the molecule `OCc1cc(-c2ccccc2C2CC2)ccc1N1CC[C@H](Sc2ccc(Cl)cn2)C1` [Example 4, ((S)-(4-(3-(5-chloropyridin-2-yl)thio)pyrrolidin-1-yl)-2′-cyclopropyl-[1,1′-biphenyl]-3-yl) methanol], the inhibition at 0.3 µM is 72.8% at hTRPV3; 0.48% at hTRPV1 (0.3 μM, patch clamp method, read-out: Inhibition rate (%) on hTRPV1); 36.2% on hTRPV4 (0.3 μM, patch clamp method, read-out: Inhibition rate (%) on hTRPV4); 2.44% at hTRPA1 (0.3 μM, patch clamp method, read-out: Inhibition rate (%) on hTRPA1). For the same molecule, at hTRPV3 (ratio of inhibition rate on TRPV3 to inhibition rate on this channel, 0.3 μM), the “Selectivity ratio (hTRPV3)” value stood at 1x. In addition, the “Selectivity ratio (hTRPV1)” value at hTRPV1 (ratio of inhibition rate on TRPV3 to inhibition rate on hTRPV1, 0.3 μM) is 152x. The “Selectivity ratio (hTRPV4)” value at hTRPV4 (ratio of inhibition rate on TRPV3 to inhibition rate on hTRPV4, 0.3 μM) was 2x. Besides, the “Selectivity ratio (hTRPA1)” value at hTRPA1 (ratio of inhibition rate on TRPV3 to inhibition rate on hTRPA1, 0.3 μM) is on record as 30x.

Turning to `OCc1cc(-c2ccccc2C2CC2)ccc1N1CC[C@H](Sc2ccc(F)cn2)C1` [Example 10, ((S)-(4-(3-(5-fluoropyridin-2-yl)thio)pyrrolidin-1-yl)-2′-cyclopropyl-[1,1′-biphenyl]-3-yl) methanol], the inhibition at 0.3 µM on hTRPV3 was 97.8%.

The term inhibition denotes how much of the control response was suppressed.
